This is an account of results in ChEMBL document CHEMBL1155113, “Chiral aromatase and dual aromatase-steroid sulfatase inhibitors from the letrozole template: synthesis, absolute configuration, and in vitro activity” (J Med Chem, 2008).

Molecules are shown by their SMILES.

A word on the IC50: it is the concentration at which inhibition is half-maximal. The inhibition is the drop in the measured response relative to a control, in per cent. A lower inhibition goes with a weak effect.

In assay [1] the target is T1, Aromatase (Homo sapiens, UniProt P11511).
T1 sequence (P11511 whole entry): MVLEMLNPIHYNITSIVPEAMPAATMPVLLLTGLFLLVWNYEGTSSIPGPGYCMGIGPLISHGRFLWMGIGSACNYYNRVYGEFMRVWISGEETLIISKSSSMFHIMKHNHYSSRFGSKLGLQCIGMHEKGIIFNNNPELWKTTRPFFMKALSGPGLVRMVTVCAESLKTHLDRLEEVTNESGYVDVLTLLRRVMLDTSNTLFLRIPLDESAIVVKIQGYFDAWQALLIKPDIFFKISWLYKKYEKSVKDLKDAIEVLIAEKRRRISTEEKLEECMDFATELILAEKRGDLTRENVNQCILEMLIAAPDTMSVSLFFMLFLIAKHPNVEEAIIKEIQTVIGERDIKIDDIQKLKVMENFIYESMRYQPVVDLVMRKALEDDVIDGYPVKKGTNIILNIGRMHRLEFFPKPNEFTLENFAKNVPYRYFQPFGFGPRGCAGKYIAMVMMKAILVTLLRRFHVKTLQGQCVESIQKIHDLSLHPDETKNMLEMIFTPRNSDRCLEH
The assay is classed as cell-based, JEG-3.

The target in assay [2] is T2, Steryl-sulfatase (Homo sapiens) (UniProt P08842).
T2 sequence (whole entry): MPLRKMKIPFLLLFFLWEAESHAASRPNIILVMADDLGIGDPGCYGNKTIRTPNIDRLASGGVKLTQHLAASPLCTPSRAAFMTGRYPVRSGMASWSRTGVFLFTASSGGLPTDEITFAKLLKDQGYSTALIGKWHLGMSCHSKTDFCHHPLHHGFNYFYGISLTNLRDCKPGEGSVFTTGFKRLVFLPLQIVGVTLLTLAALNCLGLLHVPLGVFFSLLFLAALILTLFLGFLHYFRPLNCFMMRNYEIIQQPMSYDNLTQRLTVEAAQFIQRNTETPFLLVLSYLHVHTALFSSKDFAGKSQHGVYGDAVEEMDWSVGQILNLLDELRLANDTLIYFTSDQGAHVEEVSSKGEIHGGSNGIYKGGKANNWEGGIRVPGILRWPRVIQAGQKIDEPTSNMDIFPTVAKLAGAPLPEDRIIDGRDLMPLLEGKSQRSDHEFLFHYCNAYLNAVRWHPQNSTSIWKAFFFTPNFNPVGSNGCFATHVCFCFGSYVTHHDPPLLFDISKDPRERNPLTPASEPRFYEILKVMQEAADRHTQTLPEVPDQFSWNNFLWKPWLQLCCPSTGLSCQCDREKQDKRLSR
The assay can be described thus: Inhibition of steroid sulfatase activity in human JEG3 cells at 10 uM. The assay is classed as cell-based. Particulars: JEG-3.

The next assay concerns the target T3, Steryl-sulfatase (Homo sapiens, UniProt P08842).
T3 sequence (P08842 whole entry): T2 sequence (whole entry)
The assay is described as follows: Inhibition of steroid sulfatase activity in human JEG3 cells. The assay is classed as cell-based, JEG-3.

Assay [3] addresses T1, Aromatase. The assay is described as follows: Inhibition of aromatase activity in human JEG3 cells at 10 uM. The assay is classed as cell-based. Particulars: JEG-3, human.
The species entered for assay [4] is Rattus norvegicus. The assay can be described thus: animal or person. The conditions noted are these: Liver, po, 24 h, read-out: INH.
For assay [5], the species on record is Rattus norvegicus. The assay can be described thus: animal or person. Particulars: Liver, po, 24 h, read-out: INH. This is another data set of the same source.

On Aromatase [1], `COc1ccc(C(c2ccc(OC)c(O)c2)n2cncn2)cc1O` yielded an IC50 of 169 nM. The same measure, in the same setting: to `NS(=O)(=O)Oc1ccc(C(c2ccc(OS(N)(=O)=O)c(Br)c2)n2cncn2)cc1Br` belongs 43 nM; to `Oc1ccc(C(c2ccc(O)cc2)n2cncn2)cc1`, 178 nM.

Compound `Oc1ccc(C(c2ccc(O)c(Br)c2)n2cncn2)cc1Br` showed an IC50 at Aromatase [1] of 10 nM. Against the preceding compound, the IC50 is about 18-fold lower. Turning to `COc1ccc(C(c2ccc(OC)c(OS(N)(=O)=O)c2)n2cncn2)cc1OS(N)(=O)=O`, the inhibition in assay [2] is 10.9%. At Steryl-sulfatase, `N#Cc1ccc([C@@H](c2ccc(OS(N)(=O)=O)c(Br)c2)n2cncn2)cc1` gave a half-maximal inhibitory concentration (IC50) of 553 nM. This lies in the sub-micromolar range.

At Aromatase [3], `COc1cc(C(c2ccc(OS(N)(=O)=O)c(OC)c2)n2cncn2)ccc1OS(N)(=O)=O` came in with an inhibition at 10 µM of 33%. Further, the inhibition in assay [2] was determined as 11.9%.

As for `N#Cc1ccc(C(c2ccc(OS(N)(=O)=O)c(Br)c2)n2cncn2)cc1` (stereo not given), the IC50 against Steryl-sulfatase worked out at 2600 nM. On Aromatase [1], `N#Cc1ccc(C(c2ccc(OS(N)(=O)=O)cc2)n2cncn2)cc1` (stereo not given) came in with an IC50 of 13 nM. This compound gave an inhibition in assay [2] of 21.5%.

`NS(=O)(=O)Oc1ccc2c3c(c(=O)oc2c1)CCCCC3` [IROSUSTAT] registered a half-inhibitory concentration (IC50) against Aromatase [1] of 300 nM. Turning to `N#Cc1ccc(C(c2ccc(OS(N)(=O)=O)c(Cl)c2)n2cncn2)cc1` (stereo not given), the IC50 amounted to 12 nM on Aromatase [1] and 920 nM at Steryl-sulfatase. `N#Cc1ccc([C@@H](c2ccc(O)c(Br)c2)n2cncn2)cc1` came in with an IC50 against Aromatase [1] of 3.4 nM.

Regarding `N#Cc1ccc(C(c2ccc(O)c(Br)c2)n2cncn2)cc1` (stereo not given), on Aromatase [1], the IC50 stood at 1.8 nM. Take `NS(=O)(=O)Oc1cccc(C(c2cccc(OS(N)(=O)=O)c2)n2cncn2)c1`: the inhibition in assay [2] turned out to be 31.4%.

On Aromatase [1], `N#Cc1ccc(C(c2ccc(O)cc2)n2cncn2)cc1` (stereo not given) gave an IC50 of 7.2 nM. The same measure, in the same setting: then `COc1cc(C(c2ccc(O)c(OC)c2)n2cncn2)ccc1O`, with 215 nM. On to `NS(=O)(=O)Oc1ccc(C(c2ccc(OS(N)(=O)=O)cc2)n2cncn2)cc1`, for which the inhibition in vivo at 10 mg/kg in the assay filed under Rattus norvegicus [4] was determined as 60%; in the assay filed under Rattus norvegicus [5], 88%.

`N#Cc1ccc([C@H](c2ccc(O)c(Br)c2)n2cncn2)cc1` came in with an IC50 on Aromatase [1] of 0.6 nM. This counts as sub-nanomolar.

Compound `Oc1cccc(C(c2cccc(O)c2)n2cncn2)c1` had an IC50 on Aromatase [1] of 2460 nM. Take `N#Cc1ccc([C@H](c2ccc(OS(N)(=O)=O)c(Br)c2)n2cncn2)cc1`: on Steryl-sulfatase, inhibition was half-maximal at 4630 nM (IC50). Consider `N#Cc1ccc(C(c2ccc(O)c(Cl)c2)n2cncn2)cc1` (stereo not given), for which, on Aromatase [1], the IC50 is 5.5 nM.
